From patent publication US5856574A, “Ortho-subsituted benzoylguanidines, process for their preparation, their use as a medicament or diagnostic, and medicament containing them” (Hoechst Aktiengesellschaft, priority 1996, dated 1999)
Counter-ions that a name gives are not always drawn.

Legend:
[1] = molecular target: T1, rabbit erythrocyte Na^+ /H^+ exchanger (Oryctolagus cuniculus, UniProt P23791); experiment: Inhibition of the rabbit erythrocyte Na^+ /H^+ exchanger (amiloride-sensitive sodium influx, flame photometry); assay type: cell-based, rabbit (New Zealand White); details: rabbit erythrocytes, cholesterol-fed, 37° C., pH 7.4
T1 construct: determine the Na+influx into the erythrocytes by way of Na^+ /H^+ exchange; endogenous in cells; host or cells: intact erythrocytes in heparinised blood of cholesterol-fed New Zealand White rabbits
Text: Inhibition of the rabbit erythrocyte Na^+ /H^+ exchanger
New Zealand White rabbits (Ivanovas) were given a standard diet containing 2% cholesterol for six weeks in order to activate Na^+ /H^+ exchange and thereby making it possible to use flame photometry to determine the Na+influx into the erythrocytes by way of Na^+ /H^+ exchange. The blood was withdrawn from the aural arteries and rendered incoagulable by adding 25 IU of potassium heparin. A part of each sample was used for determining the hematocrit in duplicate by means of centrifugation. Aliquots of in each case 100 μl were used for measuring the initial content of Na^+ in the erythrocytes.
In order to determine the amiloride-sensitive sodium influx, 100 μl of each blood sample were in each case incubated, at 37° C. and pH 7.4, in 5 ml of a hyper osmolar salt/sucrose medium (mmol/l: 140 NaCl, 3 KCL, 150 sucrose, 0.1 ouabain, 20 tris(hydroxymethyl)aminomethane). After that, the erythrocytes were washed three times with an ice-cold MgCl2 /ouabain solution (mmol/l: 112 MgCl2, 0.1 ouabain) and hemolyzed in 2.0 ml of distilled water. The intracellular content of sodium was determined by flame photometry.
The net Na^+ influx was calculated from the difference between the initial sodium values and the sodium content of the erythrocytes after incubation. The amiloride-inhibitable sodium influx was obtained from the difference in the sodium content of the erythrocytes after incubating them with and without […] amiloride. This procedure was also used in the case of the novel compounds.

[2] = Intraduodenal bioavailability; assay type: in vivo
[3] = Plasma elimination half life, rat, i.v.; assay type: in vivo; details: iv
[4] = Plasma elimination half life, dog, i.v.; assay type: in vivo; details: iv

T1 sequence (P23791 whole entry): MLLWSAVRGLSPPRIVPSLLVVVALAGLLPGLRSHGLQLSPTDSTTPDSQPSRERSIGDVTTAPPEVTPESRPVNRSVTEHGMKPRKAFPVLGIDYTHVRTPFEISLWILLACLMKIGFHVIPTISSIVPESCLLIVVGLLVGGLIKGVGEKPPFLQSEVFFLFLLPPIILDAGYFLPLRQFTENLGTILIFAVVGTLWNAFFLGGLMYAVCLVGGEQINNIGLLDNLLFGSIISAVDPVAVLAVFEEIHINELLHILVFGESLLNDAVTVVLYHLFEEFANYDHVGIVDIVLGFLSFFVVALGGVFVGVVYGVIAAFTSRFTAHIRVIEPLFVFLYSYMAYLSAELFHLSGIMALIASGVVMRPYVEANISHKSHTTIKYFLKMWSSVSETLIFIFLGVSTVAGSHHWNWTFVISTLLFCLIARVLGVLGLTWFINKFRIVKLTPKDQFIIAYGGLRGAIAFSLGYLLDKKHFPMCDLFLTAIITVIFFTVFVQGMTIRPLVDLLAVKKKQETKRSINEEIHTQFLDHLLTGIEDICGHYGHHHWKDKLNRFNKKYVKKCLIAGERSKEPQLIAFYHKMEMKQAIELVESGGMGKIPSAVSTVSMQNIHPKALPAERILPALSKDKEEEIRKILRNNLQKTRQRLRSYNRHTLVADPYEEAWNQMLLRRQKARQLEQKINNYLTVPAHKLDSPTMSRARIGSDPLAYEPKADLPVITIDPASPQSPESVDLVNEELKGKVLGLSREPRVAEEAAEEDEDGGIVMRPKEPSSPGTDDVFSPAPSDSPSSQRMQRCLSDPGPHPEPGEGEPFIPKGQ

Structure (SMILES) | IC50 [1] | Intraduodenal bioavailability [2] | half-life [3] | half-life [4]
CC(C)c1cc(C(F)(F)F)cc(C(=O)N=C(N)N)c1Cl [Example 5, 2-Chloro-3-isopropyl-5-trifluoromethylbenzoylguanidine hydrochloride] | 20 nM | good | 42 min | –
NC(N)=NC(=O)c1cc(C(F)(F)F)cc(C2CCCC2)c1Cl [Example 6, 2-Chloro-3-cyclopentyl-5-trifluoromethylbenzoylguanidine hydrochloride] | 60 nM | – | – | –
COc1cc(Cl)c(C(=O)N=C(N)N)cc1C(F)(F)F [Example 1, 2-Chloro4-methoxy-5-trifluoromethylbenzoylguanidine hydrochloride] | 20 nM | good | 19.2 min | 66 min
CCCc1cc(C(F)(F)F)cc(C(=O)N=C(N)N)c1Cl [Example 4, 2-Chloro-3-n-propyl-5-trifluoromethylbenzoylguanidine hydrochloride] | 70 nM | – | – | –
NC(N)=NC(=O)c1cc(C(F)(F)F)c(C2CCCC2)cc1Cl [Example 7, 2-Chloro4-cyclopentyl-5-trifluoromethylbenzoylguanidine hydrochloride] | 30 nM | – | – | –
CCCc1cc(Cl)c(C(=O)N=C(N)N)cc1C(F)(F)F [Example 8, 2-Chloro4-n-propyl-5-trifluoromethylbenzoylguanidine hydrochloride] | 10 nM | – | – | –
NC(N)=NC(=O)c1cc(C(F)(F)F)cc(I)c1Cl [Example 2, 2-Chloro-3-iodo-5-trifluoromethylbenzoylguanidine hydrochloride] | 50 nM | – | – | –
